From patent US20230151025A1, “SUBSTITUTED THIAZOLOPYRIDINES, SALTS THEREOF AND THEIR USE AS HERBICIDALLY ACTIVE SUBSTANCES” (Bayer Aktiengesellschaft, priority 2020, published 2023)

What was measured:
Type in all cases: in vivo
Stellaria media (STEME) [1] = assay: Herbicidal post-emergence action (B), 1280 g/ha
Text: (§1) ABUTH: Abutilon theophrasti AGSTE: Agrostis tenuis ALOMY: Alopecurus myosuroides AMARE Amaranthus retroflexus DIGSA: Digitaria sanguinalis ECHCG: Echinochloa crus-galli KCHSC: Kochia scoparia LOLRI: Lolium rigidum MATIN: Matricaria inodora POAAN: Poa annua POLCO: Polygonum convolvulus SETVI: Setaria viridis STEME: Stellaria media VERPE: Veronica persica VIOTR: Viola tricolor
(§2) Seeds of mono- and dicotyledonous weed plants were placed in plastic pots in sandy loam soil (doubly sown with in each case one species of mono- or dicotyledonous weed plants per pot), covered with soil and cultivated in a greenhouse under controlled growth conditions. 2 to 3 weeks after sowing, the test plants were treated at the one-leaf stage. The compounds of the invention, formulated in the form of wettable powders (WP) or as emulsion concentrates (EC), were applied onto the green parts of the plants as aqueous suspension or emulsion with addition of 0.5% additive at a water application rate of 600 liters per hectare (converted). After the test plants had been kept in the greenhouse under optimum growth conditions for about 3 weeks, the activity of the preparations was rated visually in comparison to untreated controls. For example, 100% activity=the plants have died, 0% activity=like control plants.
(§3) Tables B1 to B12, below, show the effects of selected compounds of the general formula (I) according to table 1 on various harmful plants and an application rate corresponding to 1280 g/ha obtained by the experimental procedure mentioned above.

[2] = system: Amaranthus retroflexus (AMARE); assay: Herbicidal post-emergence action (B), 1280 g/ha; conditions: rated visually after about 3 weeks vs untreated controls
Text: as §1, §2, §3

[3] = system: Matricaria inodora (MATIN); assay: Herbicidal pre-emergence action (A), 1280 g/ha; conditions: visual grading after ca. 3 weeks vs untreated controls
Text: as §1
(§4) Seeds of mono- and dicotyledonous weed plants were sown in plastic pots (double sowings with one species of mono- and one species of dicotyledonous weed plants per pot), in sandy loam, and covered with soil. The compounds according to the invention, formulated in the form of wettable powders (WP) or as emulsifiable concentrates (EC), were applied to the surface of the covering soil as aqueous suspension or emulsion, with the addition of 0.5% of an additive, at an application rate of 600 l of water per hectare (converted). Following treatment, the pots were placed in a greenhouse and kept under optimum growth conditions for the test plants. The visual grading of the damage to the test plants was carried out after ca. 3 weeks in comparison to untreated controls (herbicidal effect in percent (%): 100% effect=plants have died off, 0% effect=as control plants).
(§5) Tables A1 to A12, below, show the effects of selected compounds of the general formula (I) according to table 1 on various harmful plants and an application rate corresponding to 1280 g/ha obtained by the experimental procedure mentioned above.

[4] = system: Echinochloa crus-galli (ECHCG); assay: Herbicidal pre-emergence action (A), 1280 g/ha; conditions: visual grading after ca. 3 weeks vs untreated controls, 100% = plants have died off, 0% = as control plants
Text: as §1, §4, §5

Lolium rigidum (LOLRI) = assay: Herbicidal pre-emergence action (A), 1280 g/ha; conditions: visual grading after ca. 3 weeks vs untreated controls, 100% = plants have died off, 0% = as control plants
Text: as §1, §4, §5

Poa annua (POAAN) [5] = assay: Herbicidal pre-emergence action (A), 1280 g/ha; conditions: visual grading after ca. 3 weeks vs untreated controls, 100% = plants have died off, 0% = as control plants
Text: as §1, §4, §5

Stellaria media (STEME) [6] = assay: Herbicidal pre-emergence action (A), 1280 g/ha; conditions: visual grading after ca. 3 weeks vs untreated controls
Text: as §1, §4, §5

[7] = system: Kochia scoparia (KCHSC; Bassia scoparia); assay: Herbicidal pre-emergence action (A), 1280 g/ha; conditions: visual grading after ca. 3 weeks vs untreated controls
Text: as §1, §4, §5

[8] = system: Amaranthus retroflexus (AMARE); assay: Herbicidal pre-emergence action (A), 1280 g/ha; conditions: visual grading after ca. 3 weeks vs untreated controls
Text: as §1, §4, §5

Veronica persica (VERPE) [9] = assay: Herbicidal post-emergence action (B), 1280 g/ha
Text: as §1, §2, §3

Setaria viridis (SETVI) = assay: Herbicidal pre-emergence action (A), 1280 g/ha; conditions: visual grading after ca. 3 weeks vs untreated controls
Text: as §1, §4, §5

Poa annua (POAAN) [10] = assay: Herbicidal post-emergence action (B), 1280 g/ha; conditions: rated visually after about 3 weeks vs untreated controls
Text: as §1, §2, §3

Veronica persica (VERPE) [11] = assay: Herbicidal pre-emergence action (A), 1280 g/ha; conditions: visual grading after ca. 3 weeks vs untreated controls
Text: as §1, §4, §5

[12] = system: Kochia scoparia (KCHSC; Bassia scoparia); assay: Herbicidal post-emergence action (B), 1280 g/ha
Text: as §1, §2, §3

Row | SMILES | herbicidal activity AMARE [2] | POAAN, herbicidal effect in percent (%) (Poa annua (POAAN) [5]) | herbicidal effect STEME (Stellaria media (STEME) [6]) | herbicidal effect VERPE (Veronica persica (VERPE) [9]) | also measured
1 | Cc1nc2nc(-c3ccc(F)cc3)c(C)cc2s1 [Example I-090] | 100% |  |  |  | herbicidal effect STEME (Stellaria media (STEME) [1]): 90%
2 | CCc1cc2sc([S+](C)[O-])nc2nc1-c1ccccc1 (centres unmarked) [Example I-050] | 90% | 100% | 90% | 90% | herbicidal effect MATIN [3]: 90%; ECHCG, herbicidal effect in percent (%) [4]: 100%; LOLRI, herbicidal effect in percent (%) (Lolium rigidum (LOLRI)): 90%; herbicidal effect KCHSC [7]: 90%; herbicidal effect AMARE [8]: 90%
3 | Cc1cnsc1-c1nc2ncsc2cc1Br [Example I-202] |  |  | 100% |  | 
4 | Cc1cc2scnc2nc1-c1c(C)sc(C)c1C [Example I-199] | 100% |  | 100% |  | herbicidal effect MATIN [3]: 90%
5 | Cc1cc(-c2nc3ncsc3cc2C)c(C)s1 [Example I-197] |  | 100% |  | 90% | herbicidal effect KCHSC [7]: 90%; herbicidal effect SETVI (Setaria viridis (SETVI)): 100%; herbicidal effect AMARE [8]: 90%
6 | Cc1cnsc1-c1nc2nc(S)sc2cc1Br [Example I-208] | 100% |  |  | 90% | 
7 | Cc1cc2sc(Cc3ccccc3F)nc2nc1-c1ccccc1 [Example I-056] | 100% | 100% | 100% |  | herbicidal activity POAAN (Poa annua (POAAN) [10]): 100%
8 | Cc1nc2nc(-c3cc(Br)sc3C)c(Br)cc2s1 [Example I-142] |  | 100% |  |  | herbicidal effect MATIN [3]: 100%
9 | CCc1cc2sc(S(C)(=O)=O)nc2nc1-c1ccccc1C [Example I-061] |  |  | 90% |  | herbicidal effect AMARE [8]: 90%; herbicidal effect VERPE (Veronica persica (VERPE) [11]): 90%; herbicidal effect KCHSC [12]: 90%
10 | CCOc1nc2nc(-c3ccccc3F)c(Br)cc2s1 [Example I-101] |  |  |  | 90% | 
11 | NC(=O)c1nc2nc(-c3ccccc3F)c(Br)cc2s1 [Example I-154, 6-bromo-5-(2-fluorophenyl)thiazolo[4,5-b]pyridine-2-carboxamide] | 90% | 90% | 90% | 100% | herbicidal effect AMARE [8]: 90%; herbicidal effect KCHSC [12]: 90%
12 | CCc1cc2sc(SC)nc2nc1-c1ccccc1C [Example I-106] |  |  | 100% |  | herbicidal effect SETVI (Setaria viridis (SETVI)): 100%
13 | Cc1cc2sc(Cc3ccccc3F)nc2nc1-c1ccccc1F [Example I-073] |  | 100% | 90% |  | 
14 | C=CCNC(=O)CNc1nc2nc(-c3ccccc3F)c(Br)cc2s1 [Example I-067] | 90% |  |  |  | 
15 | CCc1cc2sc(S)nc2nc1-c1ccccc1 [Example I-162] | 90% |  | 90% | 100% | herbicidal effect VERPE (Veronica persica (VERPE) [11]): 90%; herbicidal effect KCHSC [12]: 90%
16 | Cc1cc2sc(S)nc2nc1C1=CCCCC1 [Example I-174] |  | 100% |  |  | herbicidal effect AMARE [8]: 100%

Row | SMILES | herbicidal activity AMARE [2] | POAAN, herbicidal effect in percent (%) (Poa annua (POAAN) [5]) | herbicidal effect STEME (Stellaria media (STEME) [6]) | herbicidal effect VERPE (Veronica persica (VERPE) [9]) | also measured
17 | Cc1ncsc1-c1nc2nc(S)sc2cc1Br [Example I-209] | 90% |  |  | 90% | 
18 | Cc1sc(Br)cc1-c1nc2ncsc2cc1Br [Example I-138] |  | 100% | 90% | 90% | LOLRI, herbicidal effect in percent (%) (Lolium rigidum (LOLRI)): 90%; herbicidal effect SETVI (Setaria viridis (SETVI)): 90%; herbicidal activity POAAN (Poa annua (POAAN) [10]): 90%
19 | Fc1ccccc1-c1nc2nc(S)sc2cc1Br [Example I-156, 6-bromo-5-(2-fluorophenyl)thiazolo[4,5-b]pyridine-2-thiol] | 100% |  | 90% |  | 
20 | COc1nc2nc(-c3ccccc3)c(C)cc2s1 [Example I-006] | 90% |  |  | 90% | 
21 | Cc1scc(-c2ccc3scnc3n2)c1C [Example I-201] |  |  | 100% |  | ECHCG, herbicidal effect in percent (%) [4]: 100%; herbicidal effect KCHSC [7]: 90%; herbicidal effect SETVI (Setaria viridis (SETVI)): 90%; herbicidal effect STEME (Stellaria media (STEME) [1]): 90%
22 | Cc1nc2nc(-c3ccccc3F)ccc2s1 [Example I-019] |  |  | 90% |  | herbicidal effect STEME (Stellaria media (STEME) [1]): 90%
23 | O=C(O)CNc1nc2nc(-c3ccccc3F)c(Br)cc2s1 [Example I-052] | 100% |  |  |  | 
24 | Cc1cc2sc(S(C)(=O)=O)nc2nc1-c1ccccc1 [Example I-080] |  | 100% | 100% | 90% | 
25 | Cc1cc2sc([S+](C)[O-])nc2nc1-c1cccc(F)c1 (centres unmarked) [Example I-039] |  |  |  |  | herbicidal effect STEME (Stellaria media (STEME) [1]): 90%; herbicidal effect KCHSC [12]: 90%
26 | COc1ccccc1-c1nc2nc(S)sc2cc1C [Example I-164] |  | 100% |  | 90% | herbicidal effect KCHSC [7]: 90%; herbicidal effect SETVI (Setaria viridis (SETVI)): 100%
27 | Cc1ncsc1-c1nc2ncsc2cc1Br [Example I-204] |  | 90% | 90% | 90% | ECHCG, herbicidal effect in percent (%) [4]: 90%; herbicidal effect SETVI (Setaria viridis (SETVI)): 100%; herbicidal effect AMARE [8]: 90%
28 | Cc1nc2nc(-c3ccccc3)c(C)cc2s1 [Example I-115] |  | 100% | 100% |  | herbicidal effect MATIN [3]: 90%; ECHCG, herbicidal effect in percent (%) [4]: 100%; herbicidal effect SETVI (Setaria viridis (SETVI)): 100%
29 | Cc1cc2sc([S+](C)[O-])nc2nc1-c1ccccc1Cl (centres unmarked) [Example I-024] |  |  | 100% |  | herbicidal effect KCHSC [7]: 100%; herbicidal effect VERPE (Veronica persica (VERPE) [11]): 90%; herbicidal effect KCHSC [12]: 90%
30 | CCc1cc2sc(OC)nc2nc1-c1ccccc1OC [Example I-097] |  |  |  | 100% | herbicidal effect SETVI (Setaria viridis (SETVI)): 100%; herbicidal effect STEME (Stellaria media (STEME) [1]): 100%
31 | Cc1cc2scnc2nc1-c1scnc1C [Example I-203] | 90% |  | 90% |  | ECHCG, herbicidal effect in percent (%) [4]: 100%; herbicidal effect SETVI (Setaria viridis (SETVI)): 100%; herbicidal effect AMARE [8]: 90%; herbicidal effect STEME (Stellaria media (STEME) [1]): 90%
